In the assay the target is T1, NQO2 (Rattus norvegicus, UniProt Q6AY80).
T1 construct: from tissue; host or cells: rat liver or brain protein extract
T1 sequence (Q6AY80 1-231): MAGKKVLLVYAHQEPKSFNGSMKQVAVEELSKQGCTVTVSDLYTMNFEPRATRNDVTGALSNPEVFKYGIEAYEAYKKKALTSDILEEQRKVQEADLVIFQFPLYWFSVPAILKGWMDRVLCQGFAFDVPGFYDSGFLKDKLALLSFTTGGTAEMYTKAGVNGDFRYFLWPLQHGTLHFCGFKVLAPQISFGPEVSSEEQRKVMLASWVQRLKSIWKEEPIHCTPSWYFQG
Put plainly: NQO2 binding pocket competition experiment, rat brain protein extract. The note with it: competitors menadione, quercetin, FAD. The text has this:
The crystal structure of the NQO2 protein has shown that this protein contains three distinct binding pockets. […] The data were obtained by loading the pooled eluates on a SDS-PAGE gel followed by silver staining.

For `CC(C)c1c(C(=O)Nc2ccccc2)c(-c2ccccc2)c(-c2ccc(F)cc2)n1CC[C@@H](O)C[C@@H](O)CC(=O)O` [atorvastatin, reference compound], the NQO2 binding pocket entry is listed as “binds the electron donor NRH pocket”.

The values are drawn from patent publication US7323490B2, “Pyrrole compounds and uses thereof” (Ambit Biosciences Corporation, priority 2003, dated 2008).
